# Results published in US12686687B2, “Compounds and uses thereof” (Foghorn Therapeutics Inc., priority 2019, dated 2026).
# How the values were obtained:
# [1] = target: T1, BRD9 bromodomain (Flag-BRD9 P133-K239; Swiss Prot Q9H8M2) (Homo sapiens, UniProt Q9H8M2); assay: BRD9 bromodomain TR-FRET competition binding assay; conditions: 3 nM Flag-BRD9, 3.75 nM biotinylated ligand, 90 minutes at room temperature
# T1 construct: His-Flag-BRD9 (P133-K239); Swiss Prot Q9H8M2; His6 with TEV site (mgsshhhhhhenlyfq/) (N, cleaved yes); made in house
# T1 sequence (Q9H8M2 133-239): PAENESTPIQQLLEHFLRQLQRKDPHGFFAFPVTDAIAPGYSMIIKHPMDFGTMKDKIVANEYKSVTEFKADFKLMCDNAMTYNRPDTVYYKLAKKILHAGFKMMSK
# Protocol: Cleaved His tag was removed by purification. […] DMSO or 3-fold serially diluted compounds were then added to the Proxiplate followed by addition of Flag-BRD9. After a 10-minute incubation at room temperature, Eu-W1024 anti-FLAG (PerkinElmer, AD0273) was added.
# [2] = target: T2, Nanoluciferase-BRD9 fusion protein (3×FLAG-NLuc-BRD9) in SYO-1 cells (Homo sapiens, UniProt Q9H8M2); assay: SYO1 BRD9 NanoLuc degradation assay; format: cell-based; conditions: 6 hours treatment, 1 μM top dose; read-out: SYO1 BRD9-NanoLuc degradation IC50
# T2 construct: expressed in transfected cells; host or cells: SYO-1
# T2 sequence (Q9H8M2 1-597): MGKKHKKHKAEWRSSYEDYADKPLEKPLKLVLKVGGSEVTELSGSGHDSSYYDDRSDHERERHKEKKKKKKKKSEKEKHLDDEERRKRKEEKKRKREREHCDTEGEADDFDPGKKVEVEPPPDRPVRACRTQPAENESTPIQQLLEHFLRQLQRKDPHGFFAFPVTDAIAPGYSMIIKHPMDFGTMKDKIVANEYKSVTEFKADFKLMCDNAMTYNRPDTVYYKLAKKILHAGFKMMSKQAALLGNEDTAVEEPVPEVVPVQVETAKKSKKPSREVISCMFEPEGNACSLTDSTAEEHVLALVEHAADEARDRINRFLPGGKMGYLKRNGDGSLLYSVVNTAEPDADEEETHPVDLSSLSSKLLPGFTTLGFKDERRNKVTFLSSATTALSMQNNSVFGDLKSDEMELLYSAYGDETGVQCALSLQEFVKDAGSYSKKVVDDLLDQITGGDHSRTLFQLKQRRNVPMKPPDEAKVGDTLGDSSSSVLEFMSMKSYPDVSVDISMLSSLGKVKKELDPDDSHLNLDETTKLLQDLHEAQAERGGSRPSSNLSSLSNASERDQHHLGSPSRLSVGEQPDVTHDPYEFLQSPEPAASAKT
# How it was run: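 Stable SYO-1 line expressing 3×FLAG-NLuc-BRD9 was seeded at 8000 cells/well, then treated next day for 6 h with 10-point 3-fold dilutions (top 1 μM final). Nano-Glo luminescence was read. % inhibition was normalised to DMSO (high control) and 1 μM reference BRD9 degrader (low control).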
# [3] = system: synovial sarcoma cell lines (SYO1, HS-SY-II, and ASKA); assay: Growth of synovial sarcoma cell lines, daily treatment, crystal violet at day 14; format: cell-based, human; conditions: treated daily, day 14 (FIG. 8)
# Protocol: (§1) Procedure: Cells were seeded into 6-well or 12-well plates and were treated daily with a BRD9 degrader (Compound 1), a bromo-domain BRD9 binder (Compound 2), E3 ligase binder (lenalidomide), DMSO, or staurosporin (positive control for cell killing), at indicated concentrations. The number of cells was optimized for each cell line. Growth media was refreshed every 5 days. By day 14, medium was removed, cells were washed with PBS, and stained using 500 μL of 0.005% (w/v) crystal violet solution in 25% (v/v) methanol for at least 1 hour at room temperature.
# [4] = system: synovial sarcoma cell lines (SYO1, Yamato, HS-SY-II, and ASKA); assay: Growth of synovial sarcoma cell lines (IncuCyte confluency, crystal violet staining, colony imaging); format: cell-based, human; conditions: 1 μM or indicated concentrations (FIGS. 5-7)
# Protocol: (§2) Cells were treated with DMSO or the BRD9 degrader, Compound 1, at indicated concentrations, and proliferation was monitored from day 7 to day 14 by measuring confluency over time using an IncuCyte live cell analysis system (FIG. 5). Growth medium and compounds were refreshed every 3-4 days.
# (§3) Cells were seeded into 12-well plates and treated with DMSO, 1 μM BRD9 inhibitor, Compound 2 (also known as BI-7273, see Martin et al, J Med Chem. 59(10):4462-4475 (2016); see structure of compound 2 below), or 1 μM BRD9 degrader, Compound 1.
# (§4) The number of cells was optimized for each cell line. Growth medium and compounds were refreshed every 3-5 days. SYO1, Yamato, A549, 293T and HS-SY-II cells were fixed and stained at day 11. ASKA cells were fixed and stained at day 23. Staining was done by incubation with crystal violet solution (0.5 g Crystal Violet, 27 ml 37% Formaldehyde, 100 mL 10×PBS, 10 mL Methanol, 863 dH2O to 1 L) for 30 minutes followed by 3× washes with water and drying the plates for at least 24h at room temperature. Subsequently plates were scanned on an Odyssey CLx Imaging system (FIG. 6).
# (§5) Cells were seeded into 96-well ultra low cluster plate (Costar, #7007) in 200 μL complete media and treated at day 2 with DMSO, Staurosporin, or BRD9 degrader, Compound 1, at indicated doses (FIG. 7).
# [5] = system: non-synovial control cancer cell lines (293T, A549, G401); assay: Growth of non-synovial control cancer cell lines (crystal violet staining, colony imaging); format: cell-based, human; conditions: 1 μM or indicated doses (FIGS. 5-7)
# Protocol: as §2, §3, §4, §5
# [6] = system: non-synovial control cancer cell lines (RD, HCT116, and Calu6); assay: Growth of non-synovial control cancer cell lines, daily treatment, crystal violet at day 14; format: cell-based, human; conditions: treated daily, day 14 (FIG. 9)
# Protocol: as §1
SMILES,IC50 [1],DC50 [2],inhibition of cell growth [3],inhibition of cell growth [4],inhibition of cell growth [5],inhibition of cell growth [6]
"COc1cc(-c2cn(C)c(=O)c3cc(NC(=O)C4CCCN(C(=O)CCOCCOCCNc5cccc6c5C(=O)N(C5CCC(=O)NC5=O)C6=O)C4)sc23)cc(OC)c1CN(C)C (centres unmarked) [Compound D5, N-(7-[4-[(dimethylamino)methyl]-3,5-dimethoxyphenyl]-5-methyl-4-oxothieno[3,2-c]pyridin-2-yl)-1-[3-[2-(2-[[2-(2,6-dioxopiperidin-3-yl)-1,3-dioxoisoindol-4-yl]amino]ethoxy)ethoxy]propanoyl]piperidine-3-carboxamide]",> 100 nM,> 1000 nM,–,–,–,–
COc1cc(-c2cn(C)c(=O)c3cnccc23)cc(OC)c1CN(C)C [Compound 2],–,–,inhibition of the growth of the cells,inhibition of the growth of the cells,does not result in inhibition of the growth,did not result in inhibition of the growth
"COc1cc(-c2cn(C)c(=O)c3cc(NC(=O)C4CCN(C(=O)CCOCCOCCNc5cccc6c5C(=O)N(C5CCC(=O)NC5=O)C6=O)CC4)sc23)cc(OC)c1CN(C)C (centres unmarked) [Compound D4, N-(7-[4-[(dimethylamino)methyl]-3,5-dimethoxyphenyl]-5-methyl-4-oxothieno[3,2-c]pyridin-2-yl)-1-[3-[2-(2-[[2-(2,6-dioxopiperidin-3-yl)-1,3-dioxoisoindol-4-yl]amino]ethoxy)ethoxy]propanoyl]piperidine-4-carboxamide]",> 10 nM,> 10 nM,–,–,–,–
"COc1cc(-c2cn(C)c(=O)c3cc(NC(=O)[C@@H]4CCCN(C(=O)CCCCOc5cccc6c5C(=O)N(C5CCC(=O)NC5=O)C6=O)C4)sc23)cc(OC)c1CN(C)C (stereo partly drawn) [Compound D7, (3R)—N-(7-[4-[(dimethylamino)methyl]-3,5-dimethoxyphenyl]-5-methyl-4-oxothieno[3,2-c]pyridin-2-yl)-1-(5-[[2-(2,6-dioxopiperidin-3-yl)-1,3-dioxoisoindol-4-yl]oxy]pentanoyl)piperidine-3-carboxamide]",> 100 nM,> 100 nM,–,–,–,–
"COc1cc(-c2cn(C)c(=O)c3cc(C(=O)NC4CCN(CCCCCOc5ccc6c(c5)C(=O)N(C5CCC(=O)NC5=O)C6=O)CC4(F)F)sc23)cc(OC)c1CN(C)C (centres unmarked) [Compound D15, 7-[4-[(dimethylamino)methyl]-3,5-dimethoxyphenyl]-N-[1-(5-[[2-(2,6-dioxopiperidin-3-yl)-1,3-dioxoisoindol-5-yl]oxy]pentyl)-3,3-difluoropiperidin-4-yl]-5-methyl-4-oxothieno[3,2-c]pyridine-2-carboxamide]",< 10 nM,< 10 nM,–,–,–,–
"Cn1cc(-c2ccc(OCC(=O)NCCCCCCCCNc3cccc4c3C(=O)N(C3CCC(=O)NC3=O)C4=O)c(C(F)(F)F)c2)c2sc(C(=N)NC3CCS(=O)(=O)CC3)cc2c1=O (centres unmarked) [Compound D3, 2-(4-[2-[N-(1,1-dioxo-1λ6-thian-4-yl)carbamimidoyl]-5-methyl-4-oxo-4H,5H-thieno[3,2-c]pyridin-7-yl]-2-(trifluoromethyl)phenoxy)-N-(8-[[2-(2,6-dioxopiperidin-3-yl)-1,3-dioxo-2,3-dihydro-1H-isoindol-4-yl]amino]octyl)acetamide]",> 10 nM,< 10 nM,–,–,–,–
"COc1cc(-c2cn(C)c(=O)c3cc(NC(=O)C4CCCN(CCCCCOc5cccc6c5C(=O)N(C5CCC(=O)NC5=O)C6=O)C4)sc23)cc(OC)c1CN(C)C (centres unmarked) [Compound D9, N-(7-[4-[(dimethylamino)methyl]-3,5-dimethoxyphenyl]-5-methyl-4-oxothieno[3,2-c]pyridin-2-yl)-1-(5-[[2-(2,6-dioxopiperidin-3-yl)-1,3-dioxoisoindol-4-yl]oxy]pentyl)piperidine-3-carboxamide]",> 10 nM,> 1000 nM,–,–,–,–
"COc1cc(-c2cn(C)c(=O)c3cc(NC(=O)C4CCN(C(=O)CCCCOc5cccc6c5C(=O)N(C5CCC(=O)NC5=O)C6=O)CC4)sc23)cc(OC)c1CN(C)C (centres unmarked) [Compound D12, N-(7-[4-[(dimethylamino)methyl]-3,5-dimethoxyphenyl]-5-methyl-4-oxothieno[3,2-c]pyridin-2-yl)-1-(5-[[2-(2,6-dioxopiperidin-3-yl)-1,3-dioxoisoindol-4-yl]oxy]pentanoyl)piperidine-4 carboxamide]",< 10 nM,< 10 nM,–,–,–,–
"COc1cc(-c2cn(C)c(=O)c3cc(C(=O)NC4CCN(CCCCCOc5cccc6c5C(=O)N(C5CCC(=O)NC5=O)C6=O)CC4)sc23)cc(OC)c1CN(C)C (centres unmarked) [Compound D11, 7-(4-((dimethylamino)methyl)-3,5-dimethoxyphenyl)-N-(1-(5-((2-(2,6-dioxopiperidin-3-yl)-1,3-dioxoisoindolin-4-yl)oxy)pentyl)piperidin-4-yl)-5-methyl-4-oxo-4,5-dihydrothieno[3,2-c]pyridine-2-carboxamide]",< 10 nM,> 1000 nM,–,–,–,–
"COc1cc(-c2cn(C)c(=O)c3cc(NC(=O)C4CCN(CCCCCOc5cccc6c5C(=O)N(C5CCC(=O)NC5=O)C6=O)CC4)sc23)cc(OC)c1CN(C)C (centres unmarked) [Compound D6, N-(7-[4-[(dimethylamino)methyl]-3,5-dimethoxyphenyl]-5-methyl-4-oxothieno[3,2-c]pyridin-2-yl)-1-(5-[[2-(2,6-dioxopiperidin-3-yl)-1,3-dioxoisoindol-4-yl]oxy]pentyl)piperidine-4-carboxamide]",< 10 nM,> 1000 nM,–,–,–,–
"COc1cc(-c2cn(C)c(=O)c3cc(C(=O)NC4CCN(C(=O)CCCCOc5cccc6c5C(=O)N(C5CCC(=O)NC5=O)C6=O)CC4)sc23)cc(OC)c1CN(C)C (centres unmarked) [Compound D10, 7-(4-((dimethylamino)methyl)-3,5-dimethoxyphenyl)-N-(1-(5-((2-(2,6-dioxopiperidin-3-yl)-1,3-dioxoisoindolin-4-yl)oxy)pentanoyl)piperidin-4-yl)-5-methyl-4-oxo-4,5-dihydrothieno[3,2-c]pyridine-2-carboxamide]",< 10 nM,< 10 nM,–,–,–,–
"COc1cc(-c2cn(C)c(=O)c3cc(C(=O)NC4CCN(C)CC4)sc23)cc(OC)c1CN(C)CC(=O)NCCOCCOc1cccc2c1C(=O)N(C1CCC(=O)NC1=O)C2=O (centres unmarked) [Compound D14, 7-(4-[[([[2-(2-[[2-(2,6-dioxopiperidin-3-yl)-1,3-dioxoisoindol-4 yl]oxy]ethoxy)ethyl]carbamoyl]methyl)(methyl)amino]methyl]-3,5-dimethoxyphenyl)-5-methyl-N-(1-methylpiperidin-4-yl)-4-oxothieno[3,2-c]pyridine-2-carboxamide]",> 10 nM,> 100 nM,–,–,–,–
